Data taken from US11103525B2, “Idoxuridine and its analogs as neuroprotectans for the treatment of parkinsonism” (priority 2017, dated 2021).

Columns and labels:
N2a-WT cells = experiment: Cytoprotection against 6-OHDA (MTT assay), N2a-WT cells; assay type: cell-based, mouse; conditions: 2 μM pretreatment 72 h, then 6-OHDA 24 h
Experimental: (§1) FIG. 6. GPR37-associated cytoprotection of Idoxuridine against parkinsonian drug 6-OHDA. N2a-WT and N2a-GPR37-tGFP cells were grown in differentiating medium containing either 2 μM idoxuridine, 0.1% DMSO (negative control) or 1 mM dbcAMP (positive control). 72 h later cells were treated with either 6-OHDA (10, 20, 35 100 μM) or vehicle control and incubated for 24 h. Cell viability was quantified by MTT assay. Data are pooled from three independent experiments with 6 technical replicates for each condition and are expressed as means+/−SD. To assess the […] effect of idoxuridine against 6-OHDA-toxicity data were analyzed using a 2-way ANOVA followed by a Bonferroni correction test. Each cell line was statistically analyzed separately, with pretreatment and 6-OHDA treatment as variables; or GPR37 expression and 6-OHDA-treatment as variables. For simplicity, only idoxuridine related significance is indicated; significances between positive and negative controls are not shown; ****p<0.0001, ***p<0.001, **p<0.01. Test compound (5 μL) of desired concentration (Idoxuridine, final concentration 2 μM); positive control (dibutyryl-cAMP, final concentration 1 mM); and negative control (DMSO, final concentration 0.1%) were plated in a 96-well plate. […] Absorbance was measured at 570 nm (formazan product) and at 650 nm (reference) using a Tecan Spark® 10M microplate reader. […]

primary cortical neurons = experiment: Cytoprotection against NMDA excitotoxicity (propidium iodide staining); assay type: cell-based, rat; conditions: 25 μM pretreatment 72 h or 48 h, NMDA 200 μM 30 min
Experimental: FIG. 7: Cytoprotection of Idoxuridine against excitotoxicity of NMDA. Mature primary neurons were pretreated with Idoxuridine (25 μM) or DMSO (ctrl cells) for 72 h or 48 h and subsequently exposed to NMDA (200 μM) for 30 min. Cell viability was assessed by propidium iodide (PI) staining. Both control and treated cells were incubated for 30 min with 6 μM PI which stains nuclei of dead cells. After extensive washing with Tyrode's buffer, samples were fixed and stained with DAPI to visualize all cell nuclei. PI positive cells were counted at several regions on coverslips and expressed as percentage of total cells visualized with DAPI stain. […] Data are expressed as means+/−SD and analyzed by one-way ANOVA with Dunnett's posthoc test. *p<0.001
Primary cortical neurons: Primary cortical neurons were prepared from E18 rat embryos. Cortices were isolated, cleared from meninges and dissociated after incubation in HBSS (Ca^2+ and Mg^2+-free) with 0.25% trypsin for 20 min at 37° C. […]
Mature primary neurons were pretreated with Idoxuridine (25 μM) or DMSO (ctrl cells) for 72 h or 48 h and subsequently exposed to NMDA (200 μM) for 30 min. Cell viability was assessed by propidium iodide (PI) staining. […] PI positive cells were counted at several regions on coverslips and expressed as percentage of total cells visualized with DAPI stain. […]

[1] = test system: GPR37-tGFP overexpressing cells; experiment: Cytoprotection against H2O2, GPR37-tGFP overexpressing cells; assay type: cell-based, mouse; conditions: in-well H2O2 0.00025%, compared with WT cells
Source text: (§2) FIG. 10: Cytoprotection of Idoxuridine against […]. H2O2 reduces cell viability by increasing oxidative stress. This effect was counteracted by idoxuridine in GPR37-tGFP overexpressing cells (A) and WT (B) cells. […] In-well H2O2 concentration used was 0.00025%. […]

WT cells [2] = experiment: Cytoprotection against Eeyarestatin (EeI), WT cells; assay type: cell-based, mouse
Experimental: FIG. 9: Cytoprotection of Idoxuridine against Eel. Eeyarestatin (Eel) is a potent inhibitor of endoplasmic reticulum associated protein degradation (ERAD) pathway, specifically targeting p97. Eel-mediated reduction of cell viability is counteracted by idoxuridine in both GPR37-tGFP overexpressing cells (A) and WT (B) cells. Data represented as mean+SD. Analysis performed via one-way ANOVA with Neuman-Keuls post-test for both Figures. *** indicates p<0.001.
Eeyarestatin (EeI) is a potent inhibitor of endoplasmic reticulum associated protein degradation (ERAD) pathway, specifically targeting p97.

[3] = test system: GPR37-tGFP overexpressing cells; experiment: Cytoprotection against MG132, GPR37-tGFP overexpressing cells; assay type: cell-based, mouse
Experimental: (§3) FIG. 8: Cytoprotection of Idoxuridine against MG132. MG132-induced proteasomal inhibition reduced cell viability. […] Data represented as mean+SD. Analysis performed via one-way ANOVA with Neuman-Keuls post-test for both Figures. *** indicates p<0.001. 2 mM 4-PBA used as a positive unspecific control. MG132 is a potent 26S proteasome inhibitor which increases protein accumulation, ROS leakage, induces cell cycle arrest and apoptosis.

WT cells [4] = experiment: Cytoprotection against H2O2, WT cells; assay type: cell-based, mouse; conditions: in-well H2O2 0.00025%
Source text: as §2

N2a-GPR37-tGFP cells = experiment: Cytoprotection against 6-OHDA (MTT assay), N2a-GPR37-tGFP cells; assay type: cell-based, mouse; conditions: 2 μM pretreatment 72 h, then 6-OHDA 24 h; compared with N2a-WT cells
Experimental: as §1

wildtype cells = experiment: Cytoprotection against MG132, wildtype cells; assay type: cell-based, mouse
Experimental: as §3

What does the source list for O=c1[nH]c(=O)n([C@H]2C[C@H](O)[C@@H](CO)O2)cc1I [Idoxuridine, 2′-deoxy-5-iodouridine]?
cytoprotective effect against 6-OHDA (cell viability, MTT) (N2a-WT cells): protective; effect on excitotoxicity induced by NMDA (PI positive cells) (primary cortical neurons): significantly counteracted; effect on H2O2-induced reduction of cell viability [1]: significantly stronger; effect on EeI-mediated reduction of cell viability (WT cells [2]): counteracted; effect on MG132-induced reduction of cell viability [3]: potently counteracted; effect on H2O2-induced reduction of cell viability (WT cells [4]): counteracted; cytoprotective effect against 6-OHDA (cell viability, MTT) (N2a-GPR37-tGFP cells): significantly higher effect; effect on MG132-induced reduction of cell viability (wildtype cells): some neuroprotection
